From patent US10071975B2, “Macrocyclic amidinourea derivatives, methods of preparation and uses thereof as chitinase inhibitors” (CYGNET BIOSCIENCES B.V., priority 2013, dated 2018)
Converted amounts (≈) assume the structure as drawn. Like-named read-outs stand apart in the source and are kept apart here.

What was measured:
[1] = test system: C. albicans; assay: Antimicrobial susceptibility testing (microdilution MIC90), C. albicans strains; format: cell-based; details: Candida albicans; C. albicans (22 strains tested); 24 h, visually and spectrophotometrically
Protocol: (§1) Sterile plastic microtitration plates containing flat-bottomed wells were used. The plates contained serial dilution of the antifungal agents with a volume of assay medium of 100 μL/well. Two drug-free medium wells were used as sterility and growth controls. The trays were inoculated with 100 μL/well of the final inoculum, with the exception of sterility control wells. […] The microtitration plates were incubated at 37° C. for 24 h. The minimal inhibitory concentrations (MICs) were determined at 24 h both visually and spectrophotometrically measuring the turbidity at 595 nm with a Varian model 1475 spectrophotometer. Results of biological tests are shown in Table 2, biological data are reported as MIC90 that is the minimum concentration required to inhibit the growth of at least the 90% of the strains tested for each species.

[2] = test system: C. glabrata; assay: Antimicrobial susceptibility testing (microdilution MIC90), C. glabrata strains; format: cell-based, Candida glabrata; details: Nakaseomyces glabratus; C. glabrata (26 strains tested); 24 h
Protocol: as §1

[3] = test system: C. albicans fluconazole resistant strains; assay: microbe, parasite or virus in culture; format: cell-based; details: Candida albicans, 24 h
[4] = test system: C. guilliermondii; assay: Antimicrobial susceptibility testing (microdilution MIC90), C. guilliermondii strains; format: cell-based, Candida guilliermondii; details: Meyerozyma guilliermondii; C. guilliermondii (10 strains tested); 24 h
Protocol: as §1

[5] = test system: C. glabrata fluconazole resistant strains; assay: microbe, parasite or virus in culture; format: cell-based, Candida glabrata; details: Nakaseomyces glabratus, 24 h
[6] = test system: C. kefyr; assay: Antimicrobial susceptibility testing (microdilution MIC90), C. kefyr strains; format: cell-based, Candida kefyr; details: Kluyveromyces marxianus; C. kefyr (10 strains tested); 24 h
Protocol: as §1

[7] = test system: C. parapsilosis; assay: Antimicrobial susceptibility testing (microdilution MIC90), C. parapsilosis strains; format: cell-based, Candida parapsilosis; details: Lodderomyces parapsilosis; C. parapsilosis (24 strains tested); 24 h
Protocol: as §1

[8] = test system: chitinase enzyme extracted from Trichoderma viride; assay: Chitinase inhibition assay (NP-GlcNAc substrate); format: biochemical
Protocol: Chitinase inhibition assays were conducted against an example of the GH18 family of chitinases, i.e the chitinase enzyme extracted from Trichoderma viride. This enzyme has an high degree of identity compared to chitinase 4 of Candida albicans, and is commercially available from Sigma-Aldrich (catalogue ID: C8241).
The substrate used was the NP-GlcNAc (Sigma-Aldrich, catalogue ID: N9376) dissolved in MES 50 mM at pH6.0; the final concentration was 250 μM. The enzyme was resuspended at 0.11 mg/ml in MES 50 mM at pH 6.0, with a final concentration for the assay of 73 nM diluting with MES 50 mM and BSA 20 μg/ml at pH 6.0. A stock solution of the inhibitors was prepared at 50 mM in DMSO 100%.
The mixture with the inhibitor at various concentrations and the enzyme was prepared directly into the reading plate and left to incubate at room temperature for 20 minutes or three hours. At the end of the incubation times, the substrate was added and the reading was conducted by recording the values up to a maximum time of 10 minutes. The substrate concentration was measured by reading UV absorption at 300 nm (εM^300: 11100), while, the product of hydrolysis were measured at 400 nm (ΔεM^400: 2120). Both IC50 and Ki can be calculated.

[9] = test system: C. tropicalis; assay: Antimicrobial susceptibility testing (microdilution MIC90), C. tropicalis strains; format: cell-based; details: Candida tropicalis; C. tropicalis (11 strains tested); 24 h
Protocol: as §1

[10] = test system: C. krusei; assay: Antimicrobial susceptibility testing (microdilution MIC90), C. krusei strains; format: cell-based, Candida krusei; details: Pichia kudriavzevii, 24 h
Protocol: as §1

[11] = strain DSY284, ERG11 Mutation, mean of three measurements
[12] = strain DSY289, ERG11 Mutation (2)
[13] = strain DSY291, ERG11 Mutation (2)
[14] = strain DSY292, ERG11 Mutation (3)
[15] = strain DSY751, ↑MDR1, ERG11 Mutation
[16] = Enz.-inhib. incubation time 20 min
[17] = Enz.-inhib. incubation time 3 h

Structure (SMILES) | MIC90 [1] | MIC90 [2] | MIC [3, 11] | MIC [3, 12] | MIC [3, 13] | MIC [3, 14] | MIC ([3]; strain DSY296, ERG11 Mutation) | MIC ([3]; strain DSY348, ERG11 Mutation) | MIC ([3]; strain DSY732, ↑CDR1-CDR2) | MIC ([3]; strain DSY735, ↑CDR1-CDR2) | MIC ([3]; strain DSY750, ↑MDR1) | MIC [3, 15] | MIC ([3]; strain DSY775, ERG11 Mutation) | MIC ([3]; strain DSY2323, ↑CDR2-MDR1) | MIC90 [4] | MIC ([5]; strain DSY530, ↑CDR1) | MIC ([5]; strain DSY754, ↑CDR1) | MIC ([5]; strain DSY756, ↑CDR1-CDR2-SNQ2) | MIC ([5]; strain DSY2254, ↑CDR1-CDR2) | MIC ([5]; strain DSY2271, ↑CDR2) | other results
C/C=C/CNC(=N)NCCCCCCCCN1CCCCCOc2ccccc2CNC(=N)NC1=O [Example 17, 1-[(E)-but-2-enyl]-3-[8-(4-imino-6-oxo-13-oxa-3,5,7-triazabicyclo[12.4.0]octadeca-1(14),15,17-trien-7-yl)octyl]guanidine] | 4 µg/mL (≈ 8 µM) | 8 µg/mL (≈ 16 µM) | 2 µg/mL (≈ 4 µM) | 2 µg/mL (≈ 4 µM) | 4 µg/mL (≈ 8 µM) | 4 µg/mL (≈ 8 µM) | 4 µg/mL (≈ 8 µM) | 2 µg/mL (≈ 4 µM) | 2 µg/mL (≈ 4 µM) | 2 µg/mL (≈ 4 µM) | 4 µg/mL (≈ 8 µM) | 4 µg/mL (≈ 8 µM) | 4 µg/mL (≈ 8 µM) | 4 µg/mL (≈ 8 µM) | 2 µg/mL (≈ 4 µM) | 8 µg/mL (≈ 16 µM) | 16 µg/mL (≈ 32 µM) | 8 µg/mL (≈ 16 µM) | 16 µg/mL (≈ 32 µM) | 8 µg/mL (≈ 16 µM) | MIC90 [6]: 4 µg/mL (≈ 8 µM); MIC90 [7]: 2 µg/mL (≈ 4 µM); inhibition of the chitinase enzyme [8]: active inhibitor; IC50 [8, 16]: 151 µM; Ki [8, 16]: 48.8 µM; IC50 [8, 17]: 55 µM; Ki [8, 17]: 17.8 µM; MIC90 [9]: 2 µg/mL (≈ 4 µM); MIC90 ([10]; C. krusei (13 strains tested), read-out: MIC90): 8 µg/mL (≈ 16 µM)
OC(Cn1cncn1)(Cn1cncn1)c1ccc(F)cc1F [F, Fluconazole, reference compound] | 2 µg/mL (≈ 6.53 µM) | 16 µg/mL (≈ 52.2 µM) | 256 µg/mL (≈ 836 µM) | 256 µg/mL (≈ 836 µM) | 2 µg/mL (≈ 6.53 µM) | 64 µg/mL (≈ 209 µM) | 128 µg/mL (≈ 418 µM) | 32 µg/mL (≈ 104 µM) | 16 µg/mL (≈ 52.2 µM) | 64 µg/mL (≈ 209 µM) | 2 µg/mL (≈ 6.53 µM) | 256 µg/mL (≈ 836 µM) | 128 µg/mL (≈ 418 µM) | 32 µg/mL (≈ 104 µM) | 4 µg/mL (≈ 13.1 µM) | 64 µg/mL (≈ 209 µM) | 64 µg/mL (≈ 209 µM) | 128 µg/mL (≈ 418 µM) | 128 µg/mL (≈ 418 µM) | 64 µg/mL (≈ 209 µM) | MIC90 [6]: 1 µg/mL (≈ 3.27 µM); MIC90 [7]: 0.5 µg/mL (≈ 1.63 µM); MIC90 [9]: 2 µg/mL (≈ 6.53 µM); MIC90 [10]: 256 µg/mL (≈ 836 µM)
